Measurements taken from patent publication US20130190403A1, “ADMINISTRATION OF INTRAVENOUS IBUPROFEN TO TRAUMA PATIENTS” (Cumberland Pharmaceuticals Inc., priority 2012, published 2013).

Tested on: traumatic rib fracture patients
Test: Retrospective review of traumatic rib fracture patients: intravenous ibuprofen plus narcotics versus narcotics alone
Type: in vivo, human

complications associated with ibuprofen therapy (Treatment group): no significant complications
Compound: CC(C)Cc1ccc(C(C)C(=O)O)cc1 (stereo not drawn) [ibuprofen, 2-(4-isobutylphenyl) propionic acid]
daily narcotic requirement, Treatment Group versus Control Group (Day 1 or Day 2): did not differ
daily narcotic requirement, Treatment Group versus Control Group (each of Days 3 through 7 (p<0.05)): significantly decreased
